According to the METLIN SMRT retention time set (Domingo-Almenara et al. 2019):

Assay: gradient 5% acetonitrile 3 min, to 50% in 2 min, to 85% in 15 min, held 3 min, 100 µL/min
Settings: column: Zorbax Extend-C18 2.1 x 50 mm; eluents: water / acetonitrile, 0.1% formic acid
Outline: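 Retention times of pure standards were taken from adduct peaks that were selected by computer and manually inspected. Over 3 months, mixtures of ~100 molecules were run by HPLC–quadrupole time-of-flight mass spectrometry in positive and negative ionization mode. The Zorbax Extend-C18 column (2.1 × 50 mm, 1.8 μm) ran at 100 μL/min in water and acetonitrile, each containing 0.1% formic acid, with 40 μL dead volume and 900 μL dwell volume.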
An RP-LC retention time of 774 s was found for CC(C)CNC(=O)c1ccc2c(c1)CCCN2S(C)(=O)=O in this work.
An RP-LC retention time of 718 s was found for O=C(NC1CC1)c1ccc(OCC2CCCN(C(=O)C3CC3)C2)cc1 (stereo not given) in this work.
An RP-LC retention time of 817 s was found for CC(C)(C)C(=O)Nc1cnc(N2CCCCCC2)nc1 in this work.
An RP-LC retention time of 859 s was found for COc1ccc(NC(=O)Cn2nc3c(Oc4cc(C)cc(C)c4)nccn3c2=O)cc1 in this work.
An RP-LC retention time of 1070 s was found for CCc1ccc(-c2ccc(=O)n(CCc3nc(-c4ccc5c(c4)OCO5)no3)n2)cc1 in this work.
An RP-LC retention time of 978 s was found for CCc1ccccc1NC(=O)C1CCC(=O)N1S(=O)(=O)c1ccc(C)c(C)c1 (stereo not given) in this work.
An RP-LC retention time of 1190 s was found for CCCSCCCNc1nc(-c2nnc(-c3cccc(C)c3)o2)nc2ccccc12 in this work.
An RP-LC retention time of 902 s was found for CCn1cc(-c2nc(CC(=O)Nc3ccc(F)c(C)c3)cs2)c2cccnc21 in this work.
An RP-LC retention time of 753 s was found for O=C(NCC1CCCO1)c1cccc(Nc2c(-c3ccc(Cl)cc3)nc3cnccn23)c1 (stereo not given) in this work.
An RP-LC retention time of 920 s was found for Cc1noc(C2CN(C(=O)Cc3ccccc3)CC23CCN(C)CC3)n1 (stereo not given) in this work.
An RP-LC retention time of 899 s was found for CCC(CC)C(=O)N1CCc2c(c(-c3nnc(-c4ccccc4Cl)o3)nn2C)C1 in this work.
An RP-LC retention time of 670 s was found for CCOC(=O)c1[nH]c(C)c(C(=O)N2CCC(CC(=O)NC(C)CC)CC2)c1C (stereo not given) in this work.
An RP-LC retention time of 878 s was found for COc1ccc(Cc2nc3nccc(-c4ccc(OC)cc4)n3n2)cc1 in this work.
An RP-LC retention time of 876 s was found for CC(C)N1C(=O)c2cccnc2Sc2cc(NC(=O)Cc3cccc(F)c3)ccc21 in this work.
An RP-LC retention time of 599 s was found for O=C(NCC(=O)N1CCc2ccccc21)c1ccc(=O)[nH]c1 in this work.
An RP-LC retention time of 856 s was found for O=c1n(Cc2cccc(F)c2)nc2ccc(S(=O)(=O)N3CCCC3)cn12 in this work.
An RP-LC retention time of 561 s was found for COCC(=O)N[C@@H]1CN(C2CCCCCC2)CC[C@@H]1CO in this work.
An RP-LC retention time of 656 s was found for Cc1cc(N2CCN(C)CC2)n2nc(-c3ccc(C(C)(C)C)cc3)nc2n1 in this work.
An RP-LC retention time of 590 s was found for CCC(=O)N1CCC(N2C(=O)C(O)C23CCCCC3)CC1 (stereo not given) in this work.
An RP-LC retention time of 570 s was found for CCC(=O)N1CCOc2ccc(N(C)C)cc2C1 in this work.
An RP-LC retention time of 854 s was found for O=C(NC1CCCCC1)c1nnc(-c2ccc(S(=O)(=O)N3CCOCC3)cc2)o1 in this work.
An RP-LC retention time of 1030 s was found for Cc1ccc(-n2ccnc(NC(=O)Nc3ccc(F)cc3)c2=O)cc1C in this work.
An RP-LC retention time of 740 s was found for C=CCNC(=O)C1CCN(C(=O)Nc2ccc(NC(=O)Nc3ccc(C)c(C)c3)cc2)CC1 in this work.
An RP-LC retention time of 781 s was found for CSc1ccc(CNC(=O)Cn2cnc3nc4c(cc3c2=O)CC(C)CC4)cc1 (stereo not given) in this work.
An RP-LC retention time of 702 s was found for CCC(C(=O)N1CCN(c2cc(=O)n(C)c(=O)n2C)CC1)N1C(=O)COc2ccccc21 (stereo not given) in this work.
An RP-LC retention time of 661 s was found for COCCNC(=O)NCCS(=O)(=O)N1CCN(c2cccc(C)c2)CC1 in this work.
An RP-LC retention time of 583 s was found for Cc1nc(N2CCN(c3ccccn3)CC2)nc2c1C(=O)CCC2 in this work.
An RP-LC retention time of 595 s was found for CCN1C(=O)c2ccccc2S(=O)c2ccc(C(=O)N3CCN(c4ccccn4)CC3)cc21 (stereo not given) in this work.
An RP-LC retention time of 592 s was found for O=C(NCCCN1CCCCCC1)C1CCCN(c2nn3c(=O)c4c(nc3s2)CCCC4)C1 (stereo not given) in this work.
An RP-LC retention time of 851 s was found for COc1cccc(CNc2ncc(C(=O)O)c(C(C)C)n2)c1 in this work.
An RP-LC retention time of 963 s was found for CCOc1ccc(S(=O)(=O)NCc2c(-c3ccccc3)nc3sc(CC)nn23)cc1 in this work.
An RP-LC retention time of 670 s was found for COc1cc2c(Oc3ccc(NC(=O)C4(C(=O)Nc5ccc(F)cc5)CC4)cc3F)ccnc2cc1OCCCN1CCOCC1 in this work.
An RP-LC retention time of 673 s was found for Cc1cccc(OCc2nc(-c3ccc4c(c3)ncn4CCN3CCCC3)no2)c1 in this work.
An RP-LC retention time of 759 s was found for N#Cc1ccc(Cl)cc1NC(=O)C(=O)NCC1CCCO1 (stereo not given) in this work.
An RP-LC retention time of 907 s was found for COc1ccc(NC(=O)N(C)CCc2noc(COc3cc(C)cc(C)c3)n2)cc1 in this work.
An RP-LC retention time of 722 s was found for O=C(c1csc(S(=O)(=O)N2CCC(C(=O)N3CCCCCC3)CC2)c1)N1CCOCC1 in this work.
An RP-LC retention time of 630 s was found for COc1ccc(-c2nnc(-c3ccc(-n4ccnc4)nc3)o2)c(OC)c1 in this work.
An RP-LC retention time of 650 s was found for Cc1ccc(-c2cc3c4nnc(CCC(=O)N5CCN(c6ccccn6)CC5)n4ccn3n2)cc1C in this work.
An RP-LC retention time of 570 s was found for O=C1NCCN2CC3(CCN(C(=O)Nc4ccccc4)CC3)CC12 (stereo not given) in this work.
An RP-LC retention time of 798 s was found for CCN1C(=O)CCc2cc(NC(=O)Cc3ccc(OC)c(Cl)c3)ccc21 in this work.
An RP-LC retention time of 809 s was found for Cc1cc(NC(=O)CN(C)c2nc3c(Cl)cccc3s2)no1 in this work.
An RP-LC retention time of 659 s was found for O=C(NCCCN1CCc2ccccc2C1)c1noc2c1CCCC2 in this work.
An RP-LC retention time of 795 s was found for CN1c2ccc(F)cc2C(=O)NC12CCN(C(=O)Cc1ccc(Cl)cc1)CC2 in this work.
An RP-LC retention time of 653 s was found for O=C([C@@H]1C[C@H](F)CN1C(=O)c1ccsc1)N1CCCCC1 in this work.
An RP-LC retention time of 701 s was found for CCN1C(=O)C2CC3(CCN(C(=O)c4cccs4)CC3)CN2C1=O (stereo not given) in this work.
An RP-LC retention time of 809 s was found for CC(C)(C)n1nnnc1C1CC2(CCOCC2)C(=O)N1Cc1ccc(F)cc1F (stereo not given) in this work.
An RP-LC retention time of 577 s was found for CCN1CCN(CCCNc2nc(-c3ccc(Cl)cc3)nc3ccccc23)CC1 in this work.
An RP-LC retention time of 568 s was found for CN1CCC(NC(=O)c2n[nH]c3c2CN(C(=O)c2ccccc2)CC3)CC1 in this work.
An RP-LC retention time of 775 s was found for CNC(=O)N1CCCC(c2cccc(C(=O)NCc3ccc(F)cc3F)c2)C1 (stereo not given) in this work.
An RP-LC retention time of 672 s was found for CC(C)=C1SC(=O)N(CC(=O)Nc2ccc(S(N)(=O)=O)cc2)C1=O in this work.
An RP-LC retention time of 1020 s was found for CCc1noc(-c2ccc(=O)n(CC(=O)Nc3ccc(F)cc3)c2)n1 in this work.
An RP-LC retention time of 1140 s was found for CSc1ccc(-c2nc3cnccn3c2Nc2ccc(C)cc2Br)cc1 in this work.
An RP-LC retention time of 777 s was found for CNC(=O)c1sc2nc(-c3cccc(F)c3)c(NCCCOC)n2c1C in this work.
An RP-LC retention time of 924 s was found for COC(=O)COC(=O)c1cn(-c2cccc(OC)c2)c(=O)c2ccccc12 in this work.
An RP-LC retention time of 720 s was found for CCS(=O)(=O)Nc1ccc(-c2noc(CNS(=O)(=O)c3ccccc3)n2)cc1 in this work.
An RP-LC retention time of 736 s was found for CN(CCc1noc(-c2ccc(C(=O)N3CCCC3)cc2)n1)C(=O)c1ccccc1Br in this work.
An RP-LC retention time of 1070 s was found for COc1cccc(Cn2c(=O)c3sccc3n(Cc3nc(-c4ccc(F)cc4)no3)c2=O)c1 in this work.
An RP-LC retention time of 605 s was found for COc1ccc(CCn2ccc3nc(N4CCN(C)CC4)ncc3c2=O)cc1OC in this work.
An RP-LC retention time of 1060 s was found for Cc1cc(C)cc(NC(=O)Cn2cccc(-c3nc(-c4ccc(Br)cc4)no3)c2=O)c1 in this work.
An RP-LC retention time of 763 s was found for CCN1C(=O)c2cccnc2Sc2cc(CNC(=O)c3ccc(OC)c(F)c3)ccc21 in this work.
An RP-LC retention time of 797 s was found for Cc1nn2c(CNC(=O)c3cccs3)c(-c3ccccc3)nc2s1 in this work.
An RP-LC retention time of 647 s was found for CCN(Cc1ccccc1)C(=O)CN1C(=O)C2CCCCN2c2ccc(S(=O)(=O)N(C)C)cc21 (stereo not given) in this work.
An RP-LC retention time of 654 s was found for COCCc1noc(C2CN(C(=O)c3ccsc3)C2)n1 in this work.
An RP-LC retention time of 602 s was found for CCN1CCN(c2ccc3nnc(CCc4nc(-c5ccc(F)cc5)no4)n3n2)CC1 in this work.
An RP-LC retention time of 767 s was found for Cc1ccc(F)cc1NC(=O)Cn1nc2cc(-c3ccccn3)nc(C)n2c1=O in this work.
An RP-LC retention time of 686 s was found for CCOc1cccc(CNC(=O)C2CCN(Cc3cn(C)c4ccccc34)CC2)c1 in this work.
An RP-LC retention time of 667 s was found for COc1ccc(N2CCN(c3ncc4c(n3)CCN(Cc3ccccc3Cl)C4)CC2)cc1 in this work.
An RP-LC retention time of 751 s was found for O=C(NC1CC1)c1ccc(OCC2CCCN2C(=O)c2ccccc2F)cc1 (stereo not given) in this work.
An RP-LC retention time of 568 s was found for O=C(Nc1ccc(F)cc1F)N1CCc2nc[nH]c2C1 in this work.
An RP-LC retention time of 801 s was found for CN1C(=O)c2cc(C(=O)N3CCN(c4ccccc4F)CC3)nn2CC1(C)C(=O)NC1CCCC1 (stereo not given) in this work.
An RP-LC retention time of 874 s was found for O=C(Nc1ccsn1)c1ccc(Cl)cc1Cl in this work.
An RP-LC retention time of 666 s was found for Cc1nnc(C2CC3(CCN(CCc4ccccc4)CC3)CN2CCc2ccccc2)o1 (stereo not given) in this work.
An RP-LC retention time of 735 s was found for Cc1ccc2nc(-c3ccc(Cl)cc3)c(Nc3ccc4c(c3)OCCO4)n2c1 in this work.
An RP-LC retention time of 671 s was found for C=CCNc1ncnc2ccc(Br)cc12 in this work.
An RP-LC retention time of 896 s was found for O=C(Nc1ccccc1)C1CCN(S(=O)(=O)c2cc(C(=O)N3CCCCCC3)cs2)CC1 in this work.
An RP-LC retention time of 729 s was found for CCn1cc(CCNC(=O)c2cc(F)ccc2Cl)c2cccnc21 in this work.
An RP-LC retention time of 703 s was found for COCCNC(=O)c1cc2c(s1)N(C)CCC2 in this work.
An RP-LC retention time of 909 s was found for CCc1ccccc1N(C)C(=O)C1CCCN(c2ncnc3c2nc2n3CCCCC2)C1 (stereo not given) in this work.
An RP-LC retention time of 1050 s was found for Cc1cccc(-c2nnc(-c3cccc(S(=O)(=O)N4CCCC4)c3)o2)c1 in this work.
An RP-LC retention time of 640 s was found for COc1ccc(-c2nnc(CC(=O)NC3CC3)o2)cc1 in this work.
An RP-LC retention time of 779 s was found for Cc1sc2ccn(C)c(=O)c2c1C(=O)NC(C)c1ccc(F)cc1 (stereo not given) in this work.
An RP-LC retention time of 718 s was found for CN(C)C(=O)c1csc(S(=O)(=O)N2CCC(C(=O)NCc3cccs3)CC2)c1 in this work.
An RP-LC retention time of 675 s was found for CC(=O)Nc1ccc(SCC(=O)N(C(C)C)C(C)C)nn1 in this work.
An RP-LC retention time of 1170 s was found for O=C(Nc1ccsc1-c1nnc(C2CC2)o1)c1ccsc1 in this work.
An RP-LC retention time of 584 s was found for CC(C)NC(=O)C1CCC(=O)N1C1CCN(C(=O)C2CCC2)CC1 (stereo not given) in this work.
An RP-LC retention time of 826 s was found for CCOc1ccccc1CNC(=O)C1CCCN(c2nnc3ccc(Cl)cn23)C1 (stereo not given) in this work.
An RP-LC retention time of 803 s was found for COc1ccc(-c2noc(C3CC(=O)N(c4ccccc4)C3)n2)c(OC)c1 (stereo not given) in this work.
An RP-LC retention time of 874 s was found for CCCc1cc(C2CCCN2C(=O)NCCc2ccccc2)no1 (stereo not given) in this work.
An RP-LC retention time of 790 s was found for CCc1nnc(-c2ccc3ccn(CC(=O)NCc4cccs4)c3c2)o1 in this work.
An RP-LC retention time of 799 s was found for COC(=O)c1cc(S(=O)(=O)N2CCCC2C(=O)NCc2ccc(F)cc2)cn1C (stereo not given) in this work.
